# Data published in patent publication US7241777B2, “Benzylimidazolyl substituted 2-quinoline and quinazoline derivatives for use as farnesyl transferase inhibitors” (Janssen Pharmaceutica N.V., priority 2002, dated 2007).
# Like-named read-outs stand apart in the source and are kept apart here.
# Tests used:
# [1] = target: farnesyl protein transferase (Homo sapiens, UniProt P49354+P49356); assay: In vitro assay for inhibition of farnesyl protein transferase; type: biochemical; conditions: for IC50: negative log value of the IC50-value; for inhibition at 0.1 µM: read-out: % of inhibition at 10^−7 M
# Protocol: “In Vitro Assay for Inhibition of Farnesyl Protein Transferase”
# An in vitro assay for inhibition of farnesyl transferase was performed essentially as described in WO 98/40383pages 33–34.
# [2] = read-out: Enzyme activity pIC50 (converted)
melting point,"IC50 [1, 2]",inhibition at 0.1 µM [1],IC50 ([1]; read-out: pIC50 (converted)),Structure (SMILES)
188 °C,,,,Cn1c(=O)cc(-c2cccc(Cl)c2)c2cc(C(O)c3cncn3Cc3ccccc3)ccc21 (stereo not drawn) [Compound 8]
105 °C,> 100 nM,26%,,O=C(c1ccc2c(c1)c(-c1cccc(Cl)c1)cc1nnnn12)c1cncn1Cc1ccc(Cl)cc1 [Compound 4]
,> 100 nM,44%,,Cn1c(=O)cc(-c2cccc(Cl)c2)c2cc(C(NC3CC3)c3cncn3Cc3ccccc3)ccc21 (stereo not drawn) [Compound 9]
,> 100 nM,49%,,Cn1c(=O)cc(-c2cccc(Cl)c2)c2cc(C(N)c3cncn3Cc3ccccc3)ccc21 (stereo not drawn) [Compound 11]
,> 100 nM,33%,,N#Cc1ccc(Cn2c(=O)cc(-c3cccc(Cl)c3)c3cc(C(=O)c4cncn4Cc4ccc(Cl)cc4)ccc32)cc1 [Compound 17]
140 °C,> 100 nM,32%,,OC(c1ccc2c(c1)c(-c1cccc(Cl)c1)cc1nnnn12)c1cncn1Cc1ccc(Cl)cc1 (stereo not drawn) [Compound 5]
,> 100 nM,18%,,O=C(c1ccc2c(c1)c(-c1cccc(Cl)c1)cc(=O)n2CC1CC1)c1cncn1Cc1ccc(Cl)cc1 [Compound 16]
210 °C,< 100 nM,65%,,CC(=O)NC(c1ccc2c(c1)c(-c1cccc(Cl)c1)cc(=O)n2C)c1cncn1Cc1ccccc1 (stereo not drawn) [Compound 13]
,> 100 nM,43%,,COC(c1ccc2c(c1)c(-c1cccc(Cl)c1)cc(=O)n2C)c1cncn1Cc1ccccc1 (stereo not drawn) [Compound 10]
,,87%,10.8 nM,N#Cc1ccc(Cn2cncc2C(O)c2ccc3c(c2)c(-c2cccc(Cl)c2)cc2nnnn23)cc1 (stereo not drawn) [Compound 14]
150 °C,5.45 nM,92%,5.01 nM,"Cn1c(=O)cc(-c2cccc(Cl)c2)c2cc(C(O)c3cncn3Cc3ccc(C#N)cc3)ccc21 (stereo not drawn) [Compound 3, 4-[[5-[[4-(3-chlorophenyl)-1,2-dihydro-1-methyl-2-oxo-6-quinolinyl]hydroxymethyl]-1H-imidazol-1-yl]methyl]-benzonitrile]"
192 °C,,,,Cn1c(=O)cc(-c2cccc(Cl)c2)c2cc(C(=O)c3cncn3Cc3ccccc3)ccc21 [Compound 7]
102 °C,> 100 nM,47%,,Cn1c(=O)cc(-c2cccc(Cl)c2)c2cc(C(c3cncn3Cc3ccccc3)n3ccnc3)ccc21 (stereo not drawn) [Compound 12]
